Data set [1] has as its system Mouse neuroblastoma Neuro2A cells. Briefly: Rescue of amyloid-beta oligomer induced cytotoxicity in Neuro 2a cells (CellTiter-Glo). Format: cell-based. Conditions: mouse/rat NG108-15, N2a, A-beta (O) together with compound 48 hr, normalized to A-beta (O) treated only, read-out: % viability vs. untreated. On the procedure: Preparation of amyloid-beta oligomer (A-beta (O)): Synthetic wild type A-beta (1-42) was purchased from American Peptide, and first dissolved with hexafluoroisopropanol (HFIP), then dried in the blowing tissue culture hood overnight to form a film in the eppendorf tube. The A-beta peptide film was first resuspended with DMSO to a concentration of 5 mM, further diluted with DMEM containing N2 supplement (Invitrogen) to achieve a concentration of 100 μM, and then sonicated in room temperature water bath for 10 minutes. The 100 μM peptide solution was then incubated at 4° C. for 24 hr and thoroughly vortexed before applied to cells.
Mouse neuroblastoma Neuro2A cells were plated in 96-well plates and cultured in DMEM supplemented with 10% FBS for 24 hr. […] At the end of incubation, cells were harvested and subjected to viability assay using CellTiter-Glo Luminescent Cell Viability Assay Kit (Promega). […] Compound ID numbers in table refer to structures in Table 1 and Table 2.
(Cellular ATP, detected with luciferase, serves as a proxy for viable cell number.)

For data set [2] the following is noted: Katsuno et al., Proc. Natl. Acad. Sci. USA 2003; cited from earlier work.
The nature of data set [3]: In-vivo PK of GGA oral formulations in rat. Conditions: plasma; for bioavailability: read-out: oral bioavailability (% F); for half-life: read-out: t½ (converted). On the procedure:
PK Parameters were calculated from noncompartmental analysis (NCA) model using WinNonlin software and the linear/log trapezoidal method.
Parameters that requires 1z: Terminal Half-Life (t1/2)=ln(2)/lz. Calculated using Lambda_z method to find best fit. If necessary, the concentration-time points were manually selected for use in the calculation. Bolded-italicized concentrations indicate points used for calculation.

Data set [4] in a line: Kp (ratio of AUCbrain to AUCplasma) of GGA in rat. The note with it: brain, 4 h, 6 h, 8 h, and 10 h time points. The format is in vivo.
The mark [5] stands for this setting: GGA in 3% Hydroxypropyl Cellulose (Mn=10,262) aqueous suspension.
Where [6] appears, read: GGA in 3% Hydroxypropyl Cellulose (Mn=100,000) aqueous suspension.
[7] abbreviates: GGA in 5% Gum Arabic aqueous suspension.
Where [8] appears, read: GGA in 5% Gum Arabic+3% Hydroxypropyl Cellulose (Mn=10,262) aqueous suspension.
Where [9] appears, read: GGA in 5% Gum Arabic+3% Hydroxypropyl Cellulose (Mn=100,000) aqueous suspension.

Like-named read-outs stand apart in the source and are kept apart here.

As to `CC(C)=CCC/C(C)=C/CC/C(C)=C/CCC(=O)C(C)C` [Compound 101], the viability (usually a read-out of living cells in per cent, often relative to untreated cells) at 1 µM in data set [1] is 126%.

Regarding `CC(=O)CC/C=C(\C)CC/C=C(\C)CC/C=C(\C)CCC=C(C)C` [GGA, geranylgeranyl acetone], the “concentration of GGA required to exert a cytoprotective effect” value in data set [2] was “more than 600 mg per kg per day”. Further, the time to peak (Tmax) (as a rule, the time from dosing to the highest level) in data set [3] (setting [5]) came out at 9.33 h; in data set [3] (setting [6]) it was 8.66 h; in data set [3] (setting [7]) it was 7.33 h; in data set [3] (setting [8]), 13.3 h; in data set [3] (setting [9]) it was 5.33 h. In addition, the bioavailability – broadly, the share of a dose that reaches the circulation, judged against a reference dose that is usually intravenous – in data set [3] (setting [5]) is 35%; in data set [3] (setting [6]), 41.8%; in data set [3] (setting [7]) it was 37.3%; in data set [3] (setting [8]), 36.5%; in data set [3] (setting [9]), 58%. Besides, the half-life in data set [3] (setting [5]) is 18.7 h; in data set [3] (setting [6]), 3.13 h; in data set [3] (setting [7]) it was 3.43 h; in data set [3] (setting [8]), 6.73 h; in data set [3] (setting [9]), 10.2 h. Further, the Kp (in general, the ratio of the level in a tissue or fluid to that in plasma or blood) in data set [4] fell in the range of 0.08 to 0.11.

The record behind these values is patent US20150025077A1 (COYOTE PHARMACEUTICALS, INC., priority 2012, published 2015).
